Reference: ChEMBL document CHEMBL1201862, “PubChem BioAssay data set” (2004)
The source made the active and inactive calls.

How the values were obtained:
[1] = biological target: Dual specificity mitogen-activated protein kinase kinase 1 (Homo sapiens, UniProt Q02750); experiment: Navigating the Kinome. Panel member name: MAP2K1; assay type: functional
[2] = biological target: ALK tyrosine kinase receptor (Homo sapiens, UniProt Q9UM73); assay type: functional;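 note: ALK tested as one member of a kinase panel screen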
[3] = biological target: Serine/threonine-protein kinase D2 (Homo sapiens, UniProt Q9BZL6); assay type: functional;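 note: measured against PRKD2 as one member of a kinome-wide kinase profiling panel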
[4] = biological target: Ribosomal protein S6 kinase beta-1 (Homo sapiens, UniProt P23443); assay type: functional;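 note: measured as one member of a kinome-wide profiling panel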
[5] = biological target: Tyrosine-protein kinase SYK (Homo sapiens, UniProt P43405); assay type: functional
[6] = biological target: Aurora kinase A (Homo sapiens, UniProt O14965); assay type: functional;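 note: value from the Navigating the Kinome kinase panel profiling, panel entry STK6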
[7] = biological target: Tyrosine-protein kinase Lyn (Homo sapiens, UniProt P07948); assay type: functional;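 note: lyn as one member of a kinase panel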
[8] = biological target: Proto-oncogene tyrosine-protein kinase ROS (Homo sapiens, UniProt P08922); assay type: functional;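 note: ROS1 tested as one member of a kinome-wide kinase panel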
[9] = biological target: Proto-oncogene tyrosine-protein kinase Src (Homo sapiens, UniProt P12931); assay type: functional;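 note: SRC entry within a kinome-wide kinase profiling panel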
[10] = biological target: Calcium/calmodulin-dependent protein kinase type II subunit beta (Homo sapiens, UniProt Q13554); assay type: functional
[11] = biological target: Ephrin type-A receptor 2 (Homo sapiens, UniProt P29317); assay type: functional;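 note: EPHA2 tested as one member of a kinome-wide kinase panel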
[12] = biological target: Tyrosine-protein kinase Fer (Homo sapiens, UniProt P16591); assay type: functional;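 note: FER tested as one member of a kinome panel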
[13] = biological target: Glycogen synthase kinase-3 beta (Homo sapiens, UniProt P49841); assay type: functional;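 note: value comes from a broad kinome profiling panel, with GSK3B as the panel member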
[14] = biological target: Receptor tyrosine-protein kinase erbB-4 (Homo sapiens, UniProt Q15303); assay type: functional;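 note: ERBB4 member of a kinome-wide kinase profiling panel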
[15] = biological target: Mitogen-activated protein kinase 14 (Homo sapiens, UniProt Q16539); assay type: functional;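 note: part of a kinome-wide panel, MAPK14 entry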
[16] = biological target: Heat shock protein HSP 90-alpha (Homo sapiens, UniProt P07900); experiment: Luminescence-based dose response biochemical high throughput screening assay for inhibitors of the Heat Shock Protein 90 (HSP90). [Related pubchem assays: 1831 (Summary AID.), 1846 (Confirmation screen.), 1789 (Primary screen.)]
[17] = biological target: T1, 1-phosphatidylinositol 4,5-bisphosphate phosphodiesterase gamma-1 (Homo sapiens, UniProt P19174); experiment: Counterscreen for inhibitors of phospholipase C isozymes (PLC-B3): Fluorescence-based biochemical high throughput dose response assay to identify inhibitors of phospholipase C isozymes (PLC-gamma1).
T1 sequence (P19174 whole entry): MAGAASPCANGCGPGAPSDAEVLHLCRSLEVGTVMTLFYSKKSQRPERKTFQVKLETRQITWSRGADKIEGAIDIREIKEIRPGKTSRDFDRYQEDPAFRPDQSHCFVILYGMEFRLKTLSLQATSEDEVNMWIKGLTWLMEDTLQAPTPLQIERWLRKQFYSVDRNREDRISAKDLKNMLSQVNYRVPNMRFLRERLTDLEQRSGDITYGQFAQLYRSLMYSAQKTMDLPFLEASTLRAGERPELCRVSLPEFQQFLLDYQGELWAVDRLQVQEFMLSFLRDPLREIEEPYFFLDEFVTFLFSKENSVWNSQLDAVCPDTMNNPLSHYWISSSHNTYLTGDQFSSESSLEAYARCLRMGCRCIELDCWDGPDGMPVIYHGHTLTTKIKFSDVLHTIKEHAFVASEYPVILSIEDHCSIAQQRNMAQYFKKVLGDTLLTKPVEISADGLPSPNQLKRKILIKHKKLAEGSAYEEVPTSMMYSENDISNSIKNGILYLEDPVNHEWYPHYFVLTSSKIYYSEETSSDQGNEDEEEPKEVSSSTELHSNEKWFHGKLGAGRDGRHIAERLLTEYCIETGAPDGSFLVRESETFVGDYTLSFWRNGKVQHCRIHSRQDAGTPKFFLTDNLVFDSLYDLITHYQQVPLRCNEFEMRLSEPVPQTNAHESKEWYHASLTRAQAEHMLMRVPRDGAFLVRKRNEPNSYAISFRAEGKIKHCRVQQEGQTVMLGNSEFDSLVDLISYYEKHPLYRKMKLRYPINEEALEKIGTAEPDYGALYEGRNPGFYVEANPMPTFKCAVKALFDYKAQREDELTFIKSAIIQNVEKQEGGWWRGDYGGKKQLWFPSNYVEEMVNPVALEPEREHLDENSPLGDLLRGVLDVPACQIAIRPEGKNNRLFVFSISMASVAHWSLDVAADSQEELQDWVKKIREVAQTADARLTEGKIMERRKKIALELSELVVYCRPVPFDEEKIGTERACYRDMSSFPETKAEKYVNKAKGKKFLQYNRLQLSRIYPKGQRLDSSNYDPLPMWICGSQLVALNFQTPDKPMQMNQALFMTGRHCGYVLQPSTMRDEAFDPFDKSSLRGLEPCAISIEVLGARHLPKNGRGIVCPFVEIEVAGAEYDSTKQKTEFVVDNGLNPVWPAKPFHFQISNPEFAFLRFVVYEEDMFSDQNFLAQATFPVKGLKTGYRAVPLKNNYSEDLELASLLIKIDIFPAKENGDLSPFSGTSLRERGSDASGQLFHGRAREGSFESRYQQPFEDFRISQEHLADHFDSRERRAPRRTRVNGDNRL

Chain of Receptor tyrosine-protein kinase erbB-4 (Q15303 whole entry): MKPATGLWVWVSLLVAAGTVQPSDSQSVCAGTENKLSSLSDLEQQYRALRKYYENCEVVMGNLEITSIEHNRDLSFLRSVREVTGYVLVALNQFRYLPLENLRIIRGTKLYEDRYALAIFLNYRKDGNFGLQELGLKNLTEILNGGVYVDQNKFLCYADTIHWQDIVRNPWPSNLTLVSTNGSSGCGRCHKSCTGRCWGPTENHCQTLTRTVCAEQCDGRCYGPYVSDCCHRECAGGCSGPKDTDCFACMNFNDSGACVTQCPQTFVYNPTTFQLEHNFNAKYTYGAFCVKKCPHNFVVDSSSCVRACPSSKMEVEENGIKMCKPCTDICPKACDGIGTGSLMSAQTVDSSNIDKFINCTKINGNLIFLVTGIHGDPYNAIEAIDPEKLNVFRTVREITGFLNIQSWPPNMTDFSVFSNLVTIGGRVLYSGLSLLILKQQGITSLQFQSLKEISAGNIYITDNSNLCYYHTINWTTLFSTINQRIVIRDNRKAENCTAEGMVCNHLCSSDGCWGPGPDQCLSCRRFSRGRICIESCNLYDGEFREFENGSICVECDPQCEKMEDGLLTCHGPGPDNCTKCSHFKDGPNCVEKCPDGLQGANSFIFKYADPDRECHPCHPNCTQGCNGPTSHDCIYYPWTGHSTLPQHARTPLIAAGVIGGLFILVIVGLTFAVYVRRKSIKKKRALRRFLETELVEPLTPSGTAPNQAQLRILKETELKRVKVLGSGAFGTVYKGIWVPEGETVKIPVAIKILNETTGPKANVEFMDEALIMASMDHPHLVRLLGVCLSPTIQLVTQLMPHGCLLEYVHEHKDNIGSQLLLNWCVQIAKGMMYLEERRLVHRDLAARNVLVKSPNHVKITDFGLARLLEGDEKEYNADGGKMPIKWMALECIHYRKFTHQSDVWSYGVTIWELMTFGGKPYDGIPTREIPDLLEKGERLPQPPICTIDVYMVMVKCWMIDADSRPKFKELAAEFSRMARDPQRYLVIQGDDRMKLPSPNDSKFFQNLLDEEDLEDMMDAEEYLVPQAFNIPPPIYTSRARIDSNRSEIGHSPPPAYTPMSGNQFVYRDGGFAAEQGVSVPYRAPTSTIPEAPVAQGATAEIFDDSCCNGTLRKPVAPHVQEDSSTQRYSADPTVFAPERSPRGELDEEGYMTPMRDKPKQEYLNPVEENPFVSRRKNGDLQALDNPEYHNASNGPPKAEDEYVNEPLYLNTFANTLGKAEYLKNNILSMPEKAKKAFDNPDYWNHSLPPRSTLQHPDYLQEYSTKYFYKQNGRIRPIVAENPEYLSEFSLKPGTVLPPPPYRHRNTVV
Chain of Ephrin type-A receptor 2 (P29317 whole entry): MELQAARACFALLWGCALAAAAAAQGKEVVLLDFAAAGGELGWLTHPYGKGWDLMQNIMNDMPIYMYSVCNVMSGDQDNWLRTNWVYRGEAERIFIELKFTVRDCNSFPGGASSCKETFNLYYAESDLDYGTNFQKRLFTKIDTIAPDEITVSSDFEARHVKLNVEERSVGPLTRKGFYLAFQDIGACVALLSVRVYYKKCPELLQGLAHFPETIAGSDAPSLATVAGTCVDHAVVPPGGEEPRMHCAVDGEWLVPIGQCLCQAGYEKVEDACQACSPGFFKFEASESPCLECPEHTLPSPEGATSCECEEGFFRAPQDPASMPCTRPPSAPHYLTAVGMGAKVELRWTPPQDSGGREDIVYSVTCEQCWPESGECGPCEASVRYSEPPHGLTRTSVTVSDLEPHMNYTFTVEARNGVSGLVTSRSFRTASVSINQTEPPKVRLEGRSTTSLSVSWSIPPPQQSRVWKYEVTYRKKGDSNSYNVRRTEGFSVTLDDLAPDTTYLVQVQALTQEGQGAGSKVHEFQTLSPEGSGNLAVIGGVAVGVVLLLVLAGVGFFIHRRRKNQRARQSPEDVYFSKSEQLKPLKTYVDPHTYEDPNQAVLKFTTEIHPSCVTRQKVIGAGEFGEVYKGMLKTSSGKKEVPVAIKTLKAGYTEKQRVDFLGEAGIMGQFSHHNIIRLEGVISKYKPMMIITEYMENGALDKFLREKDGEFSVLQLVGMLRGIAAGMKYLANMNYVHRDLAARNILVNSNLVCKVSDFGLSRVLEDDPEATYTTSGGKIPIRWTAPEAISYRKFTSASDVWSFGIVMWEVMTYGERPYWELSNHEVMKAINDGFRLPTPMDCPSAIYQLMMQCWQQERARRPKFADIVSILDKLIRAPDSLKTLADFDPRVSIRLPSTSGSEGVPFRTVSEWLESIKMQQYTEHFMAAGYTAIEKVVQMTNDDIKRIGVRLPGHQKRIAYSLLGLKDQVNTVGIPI
Chain of Glycogen synthase kinase-3 beta (P49841 whole entry): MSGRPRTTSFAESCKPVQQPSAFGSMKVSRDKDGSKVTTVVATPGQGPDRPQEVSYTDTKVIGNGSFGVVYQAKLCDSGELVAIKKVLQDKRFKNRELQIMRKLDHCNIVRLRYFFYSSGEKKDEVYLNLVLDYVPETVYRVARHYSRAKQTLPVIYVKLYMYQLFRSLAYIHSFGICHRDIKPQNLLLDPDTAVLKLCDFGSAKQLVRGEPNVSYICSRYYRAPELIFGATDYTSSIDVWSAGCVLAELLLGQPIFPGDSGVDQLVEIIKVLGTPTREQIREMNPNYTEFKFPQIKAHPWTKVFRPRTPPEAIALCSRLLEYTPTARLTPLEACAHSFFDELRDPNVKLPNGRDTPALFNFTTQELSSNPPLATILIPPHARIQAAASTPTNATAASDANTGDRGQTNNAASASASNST
Chain of Aurora kinase A (O14965 whole entry): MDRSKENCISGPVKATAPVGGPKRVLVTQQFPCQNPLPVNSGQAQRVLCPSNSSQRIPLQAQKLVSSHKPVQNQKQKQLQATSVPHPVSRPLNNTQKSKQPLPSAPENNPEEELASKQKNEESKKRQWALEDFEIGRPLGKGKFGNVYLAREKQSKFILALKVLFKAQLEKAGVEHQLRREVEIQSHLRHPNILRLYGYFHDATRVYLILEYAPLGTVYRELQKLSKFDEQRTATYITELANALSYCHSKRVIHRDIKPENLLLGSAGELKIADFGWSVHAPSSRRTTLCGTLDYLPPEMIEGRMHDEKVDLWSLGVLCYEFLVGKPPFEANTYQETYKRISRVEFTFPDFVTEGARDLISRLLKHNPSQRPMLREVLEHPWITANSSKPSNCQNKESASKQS
Chain of Proto-oncogene tyrosine-protein kinase Src (P12931 2-536 limits assumed): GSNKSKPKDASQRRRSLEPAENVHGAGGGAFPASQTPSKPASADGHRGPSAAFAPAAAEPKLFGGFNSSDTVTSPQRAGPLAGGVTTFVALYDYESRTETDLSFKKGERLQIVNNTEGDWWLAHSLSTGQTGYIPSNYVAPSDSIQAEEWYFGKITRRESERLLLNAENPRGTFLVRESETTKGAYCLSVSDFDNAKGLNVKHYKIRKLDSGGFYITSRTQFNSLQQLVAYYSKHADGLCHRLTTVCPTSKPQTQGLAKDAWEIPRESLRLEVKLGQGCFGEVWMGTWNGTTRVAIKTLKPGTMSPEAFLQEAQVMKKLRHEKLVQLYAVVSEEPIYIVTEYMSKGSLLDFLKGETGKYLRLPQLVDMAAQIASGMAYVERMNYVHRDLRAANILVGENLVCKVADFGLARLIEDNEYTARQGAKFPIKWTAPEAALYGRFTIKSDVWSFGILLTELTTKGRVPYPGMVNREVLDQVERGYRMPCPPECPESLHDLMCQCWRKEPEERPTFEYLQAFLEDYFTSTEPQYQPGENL
Chain of Serine/threonine-protein kinase D2 (Q9BZL6 whole entry): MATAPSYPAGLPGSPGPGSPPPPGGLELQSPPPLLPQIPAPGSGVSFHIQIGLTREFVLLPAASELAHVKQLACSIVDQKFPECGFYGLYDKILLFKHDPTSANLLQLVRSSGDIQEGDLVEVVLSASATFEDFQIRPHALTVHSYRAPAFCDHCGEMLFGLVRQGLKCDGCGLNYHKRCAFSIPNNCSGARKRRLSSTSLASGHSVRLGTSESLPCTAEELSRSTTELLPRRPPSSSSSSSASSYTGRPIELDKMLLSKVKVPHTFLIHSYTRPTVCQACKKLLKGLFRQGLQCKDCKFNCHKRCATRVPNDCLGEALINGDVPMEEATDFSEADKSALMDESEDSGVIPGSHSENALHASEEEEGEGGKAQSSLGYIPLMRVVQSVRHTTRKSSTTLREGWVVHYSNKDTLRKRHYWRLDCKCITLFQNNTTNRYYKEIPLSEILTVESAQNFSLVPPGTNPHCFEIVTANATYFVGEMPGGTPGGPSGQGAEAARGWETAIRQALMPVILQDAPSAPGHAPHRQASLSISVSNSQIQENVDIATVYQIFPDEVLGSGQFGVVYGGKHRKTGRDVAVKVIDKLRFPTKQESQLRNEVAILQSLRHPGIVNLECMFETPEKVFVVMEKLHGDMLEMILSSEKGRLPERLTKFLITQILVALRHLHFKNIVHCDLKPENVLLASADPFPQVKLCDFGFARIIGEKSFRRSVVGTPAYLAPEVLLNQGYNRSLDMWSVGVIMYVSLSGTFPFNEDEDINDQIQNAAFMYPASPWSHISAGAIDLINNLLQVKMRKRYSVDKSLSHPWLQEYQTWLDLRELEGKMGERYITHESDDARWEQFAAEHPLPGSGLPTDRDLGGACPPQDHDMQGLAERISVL
Chain of Tyrosine-protein kinase Lyn (P07948 whole entry): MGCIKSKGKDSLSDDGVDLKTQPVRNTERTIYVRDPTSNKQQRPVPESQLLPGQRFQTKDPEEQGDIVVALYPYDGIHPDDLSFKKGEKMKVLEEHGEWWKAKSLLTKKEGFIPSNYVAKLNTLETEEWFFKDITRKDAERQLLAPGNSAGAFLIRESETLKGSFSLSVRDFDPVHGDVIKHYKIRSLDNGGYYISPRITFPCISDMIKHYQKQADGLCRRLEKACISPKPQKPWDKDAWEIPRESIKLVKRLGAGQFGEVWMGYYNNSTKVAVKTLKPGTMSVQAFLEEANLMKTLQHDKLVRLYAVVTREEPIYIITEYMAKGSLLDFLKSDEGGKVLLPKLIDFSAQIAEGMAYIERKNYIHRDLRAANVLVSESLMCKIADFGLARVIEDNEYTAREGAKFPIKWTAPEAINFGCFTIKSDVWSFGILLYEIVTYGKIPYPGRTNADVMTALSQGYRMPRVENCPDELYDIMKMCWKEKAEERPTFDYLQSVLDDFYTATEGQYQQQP

Row | Ki [1] | Ki [2] | Ki [3] | Ki [4] | Ki [5] | Ki [6] | Ki [7] | Ki [8] | Ki [9] | Ki [10] | Ki [11] | Ki [12] | Ki [13] | Ki [14] | Ki [15] | Structure (SMILES) | IC50 [16] | IC50 [17]
1 | 251 nM (active) | > 3980 nM (inactive) | 1580 nM (active) | 501 nM (active) | 316 nM (active) | > 1580 nM (inactive) | 631 nM (active) | 200 nM (active) | > 2000 nM (inactive) | 3160 nM (active) | > 3160 nM (inactive) | 398 nM (active) | 1260 nM (active) | > 3980 nM (inactive) | > 3980 nM (inactive) | Clc1cc(NC2CCCCC2)nc(-c2c[nH]c3ncccc23)n1 | – | –
2 | – | – | – | – | – | – | – | – | – | – | – | – | – | – | – | Cc1ccc(/C=C2/C(=O)c3ccc(C(=O)O)cc3C2=O)o1 | 1650 nM (active) | > 122000 nM (inactive)
